Experimental data as given in patent publication US7322965B2, “Infection-resistant medical devices” (priority 2002, dated 2008).
In brackets after ≈: the same amount, converted by molar mass. Like-named read-outs stand apart in the source and are kept apart here.

How the values were obtained:
Type in all cases: cell-based
[1] = test system: S. epidermidis UC-20208; experiment: Determination of minimum inhibitory concentration (microdilution); settings: Staphylococcus epidermidis, read-out: MIC (minimum inhibitory concentration)
[2] = test system: S. epidermidis RP62A; experiment: as above; settings: Staphylococcus epidermidis, 18 h, read-out: MIC (minimum inhibitory concentration)
[3] = test system: S. hominis SP2; experiment: Microtiter-plate adherence assay on polystyrene, nonadherent reference strain; settings: data not shown
Experimental: Briefly, the inoculum was established by the direct colony suspension method using the Prompt™ Inoculation System (Becton Dickinson, Sparks, Md.). The bacteria suspension, which was equal to the turbidity of a 0.5 McFarland standard, was diluted in TSB to a concentration of 1×10^6 colony forming units per ml (CFU/mL). One hundred microliters of the cell suspension was added to flat-bottom polystyrene wells (Corning Costar, Corning, N.Y.) containing 100 μl of TSB, with and without drug. The final inoculum concentration per well was approximately 5×10^5 CFU/mL. The plates were incubated at 37° C. under static conditions in air. At 18 hours (h) post-infection, the optical density of bacterial growth was measured at a wavelength of 595 nm in a microtiter plate reader (Vmax; Molecular Devices, Sunnyvale, Calif.). […] The optical density of bacterial adherence was determined at a wavelength of 550 nm. […] To compensate for background absorbance, optical density readings from wells treated with sterile medium, fixative and stain as described above were averaged and then subtracted from all test and control wells. […]
Reliability of the microtiter-plate adherence assay was assessed with the reference strains S. hominis SP2 (nonadherent) and S. epidermidis RP62A (strongly adherent). The median optical density readings for SP2 and RP62A were 0.059±0.004 and 2.789±0.266, respectively. […]

[4] = test system: S. epidermidis UC-20208; experiment: Time course adherence assay (prophylactic and delayed treatment); settings: for inhibition at 1 µg/mL / inhibition at 2 µg/mL / inhibition at 4 µg/mL / inhibition at 8 µg/mL: Staphylococcus epidermidis, read-out: Percent inhibition of bacterial adherence relative to controls; for Mean OD550: UC-20208
Experimental: (§1) Drug effects on bacterial adherence were measured 18 hours after treatment initiation using a quantitative spectrophotometric assay.
(§2) Relative inhibition of adherence was expressed by the following equation: (OD of control well−OD of treated well/OD of control well)×100, where OD is the mean optical density of six replicate wells from two separate experiments (three replicates per experiment). Control was defined as infected, drug-free cultures.
(§3) The primary efficacy variable in this study was the measurement of adherent bacteria to polystyrene surfaces after 18 hours to 24 hours of growth. To determine whether statistically significant differences existed between treatments (4×MIC, 2×MIC, MIC, and ½ MIC) compared with the infected-nontreated controls, multiple comparisons according to Dunnett's test (Montgomery, Design and Analysis of Experiments (1991)) were applied for each clinical strain. Differences were considered statistically significant when p<0.05.

[5] = test system: S. epidermidis isolates (UC-20207, UC-20208, and RP62A); experiment: Time course adherence assay, summary over three S. epidermidis isolates; settings: for mean inhibitory effects on staphylococcal adherence: subtherapeutic (one-half MIC)
Experimental: as §1, §2, §3

[6] = 1.0 μg/ml, treatment 0 h post-infection
[7] = 1.0 μg/ml, treatment 2 h post-infection
[8] = 1.0 μg/ml, treatment 4 h post-infection
[9] = 1.0 μg/ml, treatment 6 h post-infection
[10] = 2.0 μg/ml (MIC), treatment 0 h post-infection
[11] = 2.0 μg/ml (MIC), treatment 2 h post-infection
[12] = 2.0 μg/ml (MIC), treatment 4 h post-infection
[13] = 2.0 μg/ml (MIC), treatment 6 h post-infection
[14] = 4.0 μg/ml, treatment 0 h post-infection
[15] = 4.0 μg/ml, treatment 2 h post-infection
[16] = 4.0 μg/ml, treatment 4 h post-infection
[17] = 4.0 μg/ml, treatment 6 h post-infection
[18] = 8.0 μg/ml, treatment 0 h post-infection
[19] = 8.0 μg/ml, treatment 2 h post-infection
[20] = 8.0 μg/ml, treatment 4 h post-infection

| SMILES | promotion of adherence of the nonadherent strain [3] | inhibition at 1 µg/mL ([4]; UC20208, 0 h) [%] | inhibition at 2 µg/mL ([4]; UC20208, 0 h) [%] | inhibition at 4 µg/mL ([4]; UC20208, 0 h) [%] | inhibition at 8 µg/mL ([4]; UC20208, 0 h) [%] | inhibition at 1 µg/mL ([4]; UC20208, 2 h) [%] | inhibition at 2 µg/mL ([4]; UC20208, 2 h) [%] | inhibition at 4 µg/mL ([4]; UC20208, 2 h) [%] | inhibition at 8 µg/mL ([4]; UC20208, 2 h) [%] | inhibition at 1 µg/mL ([4]; UC20208, 4 h) [%] | inhibition at 2 µg/mL ([4]; UC20208, 4 h) [%] | inhibition at 4 µg/mL ([4]; UC20208, 4 h) [%] | inhibition at 8 µg/mL ([4]; UC20208, 4 h) [%] | inhibition at 1 µg/mL ([4]; UC20208, 6 h) [%] | inhibition at 2 µg/mL ([4]; UC20208, 6 h) [%] | inhibition at 4 µg/mL ([4]; UC20208, 6 h) [%] | inhibition at 8 µg/mL ([4]; UC20208, 6 h) [%] | Mean OD550 [4, 6] | Mean OD550 [4, 7] | Mean OD550 [4, 8] | further results |
| --- | --- | --- | --- | --- | --- | --- | --- | --- | --- | --- | --- | --- | --- | --- | --- | --- | --- | --- | --- | --- | --- |
| CC(=O)NC[C@H]1CN(c2ccc(N3CCOCC3)c(F)c2)C(=O)O1 [Linezolid, (S)-N-[[3-[3-fluoro-4-(4-morpholinyl)phenyl]-2-oxo-5-oxazolidinyl]methyl]acetamide] | Neither linezolid nor vancomycin promoted adherence | 99.9 | 99.9 | 99.8 | 100 | 99.8 | 99.8 | 99.7 | 99.7 | 22.1 | 100 | 100 | 100 | 0 | 0 | 56.8 | 89.1 | 0.001 ± 0.002 | 0.003 ± 0.001 | 0.856 ± 0.472 | MIC ([1]; UC20208, S. epidermidis UC-20208, 18 h): 2 µg/mL (≈ 5.93 µM); MIC ([2]; S. epidermidis RP62A): 2 µg/mL (≈ 5.93 µM); Mean OD550 [4, 9]: 1.127 ± 0.133; Mean OD550 [4, 10]: 0.001 ± 0.001; Mean OD550 [4, 11]: 0.003 ± 0.000; Mean OD550 [4, 12]: 0.000 ± 0.003; Mean OD550 [4, 13]: 1.602 ± 0.300; Mean OD550 [4, 14]: 0.002 ± 0.001; Mean OD550 [4, 15]: 0.004 ± 0.001; Mean OD550 [4, 16]: 0.000 ± 0.001; Mean OD550 [4, 17]: 0.363 ± 0.280; Mean OD550 [4, 18]: 0.000 ± 0.001; Mean OD550 [4, 19]: 0.004 ± 0.001; Mean OD550 [4, 20]: 0.000 ± 0.003; Mean OD550 ([4]; 8.0 μg/ml, treatment 6 h post-infection): 0.092 ± 0.053; inhibitory effects on adherence ([5]; 4×MIC, 6-hour delay, mean of three strains): 87.5%±11.7; mean inhibitory effects on staphylococcal adherence ([5]; 2 h delayed treatment, mean of three strains): 99.1%±1.4; mean inhibitory effects on staphylococcal adherence ([5]; 4 h delayed treatment, mean of three strains): 63.5%±39.2; anti-adhesion activity ([5]; therapeutic levels (≧MIC), 2- and 4-hour deferred treatments): potent anti-adhesion activity |
| CN[C@H](CC(C)C)C(=O)N[C@H]1C(=O)N[C@@H](CC(N)=O)C(=O)N[C@H]2C(=O)N[C@H]3C(=O)N[C@H](C(=O)N[C@H](C(=O)O)c4cc(O)cc(O)c4-c4cc3ccc4O)[C@H](O)c3ccc(c(Cl)c3)Oc3cc2cc(c3O[C@@H]2O[C@H](CO)[C@@H](O)[C@H](O)[C@H]2O[C@H]2C[C@](C)(N)[C@H](O)[C@H](C)O2)Oc2ccc(cc2Cl)[C@H]1O [Vancomycin] | Neither linezolid nor vancomycin promoted adherence | 0 | 99.9 | 99.9 | 99.9 | 0 | 99.1 | 100 | 100 | 0 | 0 | 85.1 | 99.6 | 0 | 0 | 0 | 0 | 1.865 ± 0.309 | 1.865 ± 0.435 | 1.752 ± 0.566 | MIC ([1]; UC20208, 18 h): 2 µg/mL (≈ 1.38 µM); MIC ([2]; RP62A): 2 µg/mL (≈ 1.38 µM); Mean OD550 [4, 9]: 1.127 ± 0.463; Mean OD550 [4, 10]: 0.001 ± 0.000; Mean OD550 [4, 11]: 0.014 ± 0.036; Mean OD550 [4, 12]: 2.414 ± 0.558; Mean OD550 [4, 13]: 1.281 ± 0.555; Mean OD550 [4, 14]: 0.001 ± 0.001; Mean OD550 [4, 15]: 0.000 ± 0.001; Mean OD550 [4, 16]: 0.239 ± 0.261; Mean OD550 [4, 17]: 1.555 ± 0.206; Mean OD550 [4, 18]: 0.001 ± 0.001; Mean OD550 [4, 19]: 0.000 ± 0.001; Mean OD550 [4, 20]: 0.006 ± 0.002; activity against cell adhesion ([5]; subtherapeutic concentrations (one-half MIC)): minimal or no activity against cell adhesion; anti-adhesion activity ([5]; therapeutic levels, administered 2 hours post-infection, compared with linezolid): equally effective; anti-adhesion activity ([5]; treatments delayed by 4 to 6 hours): only the highest concentrations (>MIC) demonstrated anti-adhesion activity |
